For series [1], the system named is A549. The experiment in a line: Cytotoxicity against human A549 cells after 7 days by MTT assay. Conditions: A549, 168 h, read-out: ED50 (the source's name). Format: functional.
For series [2], the system named is A498. The series is described as follows: Cytotoxicity against human A498 cells after 7 days by MTT assay. Format: functional. Conditions: A498, 168 h, read-out: ED50 (the source's name). A general note: Tetrazolium dyes change colour on reduction, which living cells bring about.
For series [3], the system named is MCF7. The series is described as follows: Cytotoxicity against human MCF7 cells after 7 days by MTT assay. In kind it is functional. The note with it: MCF7, 168 h, read-out: ED50 (the source's name).
For series [4], the system named is MIA PaCa-2. The experiment in a line: Cytotoxicity against human MIAPaCa2 cells after 7 days by MTT assay. Format: functional. Conditions: MIA PaCa-2, 168 h, read-out: ED50 (the source's name).
The test system of series [5] is PC-3. The series is described as follows: Cytotoxicity against human PC3 cells after 7 days by MTT assay. In kind it is functional. Conditions: PC-3, 168 h, read-out: ED50 (the source's name).
The subject of series [6] is HT-29. The experiment in a line: Cytotoxicity against human HT-29 cells after 7 days by MTT assay. Format: functional. The note with it: HT-29, 168 h, read-out: ED50 (the source's name).
A short description of series [7]: Toxicity in Artemia salina. Format: organism-based. The note with it: in vivo.

The values that follow come from ChEMBL document CHEMBL1150881, “Glacins A and B: two novel bioactive mono-tetrahydrofuran acetogenins from Annona glabra” (J Nat Prod, 1998).

Structures are written as SMILES. Converted amounts (≈) assume the structure as drawn.

As to `COc1cccc2c1C(=O)c1c(O)c3c(c(O)c1C2=O)C[C@@](O)(C(=O)CO)C[C@@H]3O[C@H]1C[C@H](N)[C@H](O)[C@H](C)O1` [DOXORUBICIN], the EC50 in series [1] was found to be 0.0191 µg/mL (≈ 0.0351 µM); in series [2] it was 0.0062 µg/mL (≈ 0.0114 µM); in series [3], 0.179 µg/mL (≈ 0.329 µM); in series [4], 0.0153 µg/mL (≈ 0.0281 µM); in series [5] it was 0.046 µg/mL (≈ 0.0846 µM); in series [6], 0.0278 µg/mL (≈ 0.0511 µM).

`CCCCCCCCCC[C@@H](O)[C@H]1CC[C@H]([C@H](O)CCCC[C@H](O)CCCCCCC[C@@H](O)CC2=C[C@H](C)OC2=O)O1` [GLACIN A]: the EC50 was determined as 1.53 µg/mL (≈ 2.56 µM) in series [1]; 1.25 µg/mL (≈ 2.09 µM) in series [2]; 0.00442 µg/mL (≈ 0.00741 µM) in series [3]; 0.00857 µg/mL (≈ 0.0144 µM) in series [4]; 0.00981 µg/mL (≈ 0.0164 µM) in series [5]; 2.3 µg/mL (≈ 3.85 µM) in series [6]. The same molecule came in with an LC50 in series [7] of 0.11 µg/mL (≈ 0.184 µM).

As for `CCCCCCCCCC[C@H](O)[C@@H](O)CCCC[C@H]1CC[C@H]([C@H]2CC[C@H]([C@H](O)CCCCC[C@@H](O)CC3=C[C@H](C)OC3=O)O2)O1` [GLACIN B], the EC50 in series [1] is 1.29 µg/mL (≈ 2.02 µM); in series [2], 2.61 µg/mL (≈ 4.08 µM); in series [3], 0.052 µg/mL (≈ 0.0814 µM); in series [4], 0.0274 µg/mL (≈ 0.0429 µM); in series [5] it was 0.0559 µg/mL (≈ 0.0875 µM); in series [6] it was 0.0868 µg/mL (≈ 0.136 µM). In series [7], this molecule had an LC50 of 0.27 µg/mL (≈ 0.423 µM).

Usually LC50 stands for the concentration lethal to half of the exposed cells or organisms. Low values mean a more lethal substance, high ones a less lethal substance.
